Assay results as given in patent US11274111B2, “Arginase inhibitors and methods of use” (Merck Sharp & Dohme Corp., priority 2018, dated 2022).
pIC50: −log10 of the molar value. Like-named read-outs stand apart in the source and are kept apart here.

Target: T1, Arginase (Homo sapiens, UniProt P05089)
T1 construct: Arginase protein was recombinantly expressed in Escherichia coli
T1 sequence (P05089 1-322): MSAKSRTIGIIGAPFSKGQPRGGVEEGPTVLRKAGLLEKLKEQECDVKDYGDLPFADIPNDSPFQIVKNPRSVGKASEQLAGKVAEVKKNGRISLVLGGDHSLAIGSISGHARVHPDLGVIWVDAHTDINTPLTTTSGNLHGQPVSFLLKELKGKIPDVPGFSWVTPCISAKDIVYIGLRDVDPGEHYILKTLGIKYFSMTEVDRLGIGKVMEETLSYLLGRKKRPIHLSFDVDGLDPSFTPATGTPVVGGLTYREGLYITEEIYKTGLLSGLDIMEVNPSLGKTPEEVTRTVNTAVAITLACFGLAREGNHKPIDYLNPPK
Assay: Arginase Thioornithine Generating Assay (TOGA)
Assay type: biochemical
Details: for pIC50: recombinant arginase 1.88 nM, thioarginine substrate; for inhibition at 16 µM: Top Dose 16000 nM
Procedure: Arginase Thioornithine Generating Assay (TOGA)
Compounds were serially diluted in ten 3-fold steps in DMSO starting from 10 mM DMSO stocks. Compound dilutions or DMSO alone were then dispensed from the dilution plate into a Greiner black 384-well assay plate (catalog #781086) using an Echo 555 acoustic liquid handler (Labcyte).
Arginase protein was recombinantly expressed in Escherichia coli. Purified protein was then diluted in assay buffer (50 mM Tris pH 7.5, 50 mM NaCl, 1 mM manganese chloride, 0.05% bovine serum albumin to obtain a final Arginase concentration of 1.88 nM. Arginase solution (20 μL) or buffer alone (20 μL) were dispensed to wells of the assay plate using a BioRAPTR liquid dispenser (Beckman Coulter). Assay plates containing compound and arginase enzyme were incubated at room temperature for 30 minutes. Afterwards, 5 μL of 2.5 mM thioarginine (Cayman Chemicals) in assay buffer were added to each well of the assay plate using a BioRAPTR liquid dispenser. Plates were incubated at room temperature for 60 minutes and reactions were quenched by addition of 15 μL of 200 uM 7-Diethylamine-3-(4-maleimidophenyl)-4-methylcoumarin (Sigma Chemical) in 70% ethanol. Plates were briefly shaken to mix and the fluorescence was measured in an Spectramax plate reader (Molecular Devices) with a 410 nm excitation wavelength and an 490 nm emission wavelength.
Potencies were calculated by […] to the four parameter logistic IC50 equation.

[1] = Top Dose 10000 nM, read-out: Percent Inhibition at Top Dose
[2] = read-out: Percent Inhibition at Top Dose

| Molecule | inhibition at 10 µM [1] [%] | pIC50 | other results |
| --- | --- | --- | --- |
| CC(C)N1C[C@@H]2C[C@@](N)(C(=O)O)[C@@H](CCCB(O)O)[C@@H]2C1 [Example 8, (3aR,4S,5S,6aR)-5-amino-4-(3-boronopropyl)-2-isopropyloctahydrocyclopenta[c]pyrrole-5-carboxylic acid] | 74.8 | – | – |
| (1S,2S,3aS,5R,6R,6aR)-2-amino-1-(3-boronopropyl)-6-fluoro-5-hydroxyoctahydropentalene-2-carboxylate [Example 52b] | – | 7.43 | Percent Inhibition at Top Dose (Top Dose 10000 nM): 99.46% |
| CN[C@@]1(C(=O)O)C[C@H]2CNC[C@H]2[C@@H]1CCCB(O)O [Example 22, (3aR,4S,5S,6aR)-4-(3-boronopropyl)-5-(methylamino)octahydrocyclopenta[c]pyrrole-5-carboxylic acid] | 93.9 | – | – |
| C[C@H](N)C(=O)N1C[C@@H]2C[C@@](N)(C(=O)O)[C@@H](CCCB(O)O)[C@@H]2C1 [Example 4, (3aR,4S,5S,6aR)-2-(L-alanyl)-5-amino-4-(3-boronopropyl)octahydrocyclopenta[c]pyrrole-5-carboxylic acid] | 97.4 | 6.97 | – |
| NC1(C(=O)O)C(CCCB(O)O)C[C@H]2C[C@H]21 (relative stereo) [Example 36a, rel-(1R,5R)-2-amino-3-(3-boronopropyl)bicyclo[3.1.0]hexane-2-carboxylic acid] | 93 | – | – |
| N[C@]1(C(=O)O)[C@H](CCCB(O)O)C[C@H]2C[C@H]21 [Example 36b, (1R,2R,3R,5R)-2-amino-3-(3-boronopropyl)bicyclo[3.1.0]hexane-2-carboxylic acid] | 47.4 | – | – |
| NC1(C(=O)O)CC2CCCC2C1CCCB(O)O (stereo not drawn) [Example 34a, 2-amino-1-(3-boronopropyl)octahydropentalene-2-carboxylic acid] | 22.2 | – | – |
| CC(=O)N1C[C@@H]2C[C@@](N)(C(=O)O)[C@@H](CCCB(O)O)[C@@H]2C1 [Example 7, (3aR,4S,5S,6aR)-2-acetyl-5-amino-4-(3-boronopropyl)octahydrocyclopenta[c]pyrrole-5-carboxylic acid] | 72.8 | – | – |
| (1S,2S,3aR,4S,5S,6aS)-2-amino-1-(3-boronopropyl)-4-fluoro-5-(methylamino)octahydropentalene-2-carboxylate [Example 55b] | – | 7.84 | Percent Inhibition at Top Dose (Top Dose 10000 nM): 101.7% |
| N[C@@H](CO)C(=O)N1C[C@@H]2C[C@@](N)(C(=O)O)[C@@H](CCCB(O)O)[C@@H]2C1 [Example 6, (3aR,4S,5S,6aR)-2-(L-seryl)-5-amino-4-(3-boronopropyl)octahydrocyclopenta[c]pyrrole-5-carboxylic acid] | 94.2 | 6.75 | – |
| N[C@@]1(C(=O)O)C[C@H]2C(=O)NC[C@H]2[C@@H]1CCCB(O)O (single isomer, unassigned) [Example 23a] | 86.5 | – | – |
| NC1(C(=O)O)CC2(CNC2)CC1CCCB(O)O (stereo not drawn) [Example 35a, 6-amino-7-(3-boronopropyl)-2-azaspiro[3.4]octane-6-carboxylic acid] | 99.7 | 6.63 | – |
| NC1(C(=O)O)C(CCCB(O)O)C[C@H]2CNC[C@H]21 (mixture of isomers) [Example 28, rac-(3aS,6aR)-4-amino-5-(3-boronopropyl)octahydrocyclopenta[c]pyrrole-4-carboxylic acid] | 90.4 | – | – |
| NC(=O)N1CC2CC(N)(C(=O)O)C(CCCB(O)O)C2C1 (single isomer, unassigned) [Example 17a, 5-amino-4-(3-boronopropyl)-2-carbamoyloctahydrocyclopenta[c]pyrrole-5-carboxylic acid] | 90.6 | – | – |
| NC1(C(=O)O)C(CCCB(O)O)C[C@H]2NCC[C@H]21 (mixture of isomers) [Example 20f, (3aR,6aR)-4-amino-5-(3-boronopropyl)octahydrocyclopenta[b]pyrrole-4-carboxylic acid] | – | – | inhibition at 10 µM (read-out: Percent Inhibition at Top Dose, Top Dose 10000 nM): 99.2% |
| NC1(C(=O)O)CC2(CCCN2)CC1CCCB(O)O (stereo not drawn) [Example 37a, rel-7-amino-8-(3-boronopropyl)-1-azaspiro[4.4]nonane-7-carboxylic acid] | 98 | – | – |

| Molecule | inhibition at 10 µM [1] [%] | pIC50 | other results |
| --- | --- | --- | --- |
| N[C@H]1C[C@@H]2C[C@@](N)(C(=O)O)[C@@H](CCCB(O)O)[C@@H]2C1 [Example 45, (1S,2S,3aR,5S,6aR)-2,5-diamino-1-(3-boronopropyl)octahydropentalene-2-carboxylic acid] | 99.4 | – | – |
| NC1(C(=O)O)CC2(CNC2)CC1CCCB(O)O (single isomer, unassigned) [Example 35c, 6-amino-7-(3-boronopropyl)-2-azaspiro[3.4]octane-6-carboxylic acid] | 82.3 | – | – |
| N[C@@]1(C(=O)O)C[C@H]2CNC[C@H]2[C@@H]1CCCB(O)O [Example 1a] | – | – | inhibition at 100 µM (Top Dose 100000 nM, read-out: Percent Inhibition at Top Dose): 104% |
| NC1(C(=O)O)C(CCCB(O)O)CC2NCCCC21 (stereo not drawn) [Example 40, 5-amino-6-(3-boronopropyl)octahydro-1H-cyclopenta[b]pyridine-5-carboxylic acid] | 91.4 | – | – |
| N[C@@]1(C(=O)O)C[C@H]2C[C@@H](NCCO)C[C@H]2[C@@H]1CCCB(O)O [Example 48, (1S,2S,3aR,5R,6aR)-2-amino-1-(3-boronopropyl)-5-((2-hydroxyethyl)amino)octahydropentalene-2-carboxylic acid] | 98.4 | – | – |
| CCN1C[C@@H]2C[C@@](N)(C(=O)O)[C@@H](CCCB(O)O)[C@@H]2C1 [Example 12, (3aR,4S,5S,6aR)-5-amino-4-(3-boronopropyl)-2-ethyloctahydrocyclopenta[c]pyrrole-5-carboxylic acid] | 85.3 | – | – |
| N[C@@]1(C(=O)O)C[C@H]2C[C@@H](O)C[C@H]2[C@@H]1CCCB(O)O [Example 44a, (1S,2S,3aS,5R,6aR)-2-amino-1-(3-boronopropyl)-5-hydroxyoctahydropentalene-2-carboxylic acid] | 97.1 | 6.59 | – |
| (1S,2S,3aS,5S,6R,6aR)-2-amino-1-(3-boronopropyl)-6-fluoro-5-hydroxyoctahydropentalene-2-carboxylate [Example 52a] | – | 6.66 | Percent Inhibition at Top Dose (Top Dose 10000 nM): 96.25% |
| NC1(C(=O)O)c2cccnc2CC1CCCB(O)O (stereo not drawn) [Example 39, 5-amino-6-(3-boronopropyl)-6,7-dihydro-5H-cyclopenta[b]pyridine-5-carboxylic acid] | 94.7 | – | – |
| CN(C)CC(=O)N1C[C@@H]2CC(N)(C(=O)O)C(CCCB(O)O)[C@@H]2C1 (stereo in doubt) [Example 19, 5-amino-4-(3-boronopropyl)-2-(2-(dimethylamino)acetyl)octahydrocyclopenta[c]pyrrole-5-carboxylic acid] | – | – | inhibition at 16 µM [2]: 82.7% |
| CN1C[C@@H]2C[C@@](N)(C(=O)O)[C@@H](CCCB(O)O)[C@@H]2C1 [Example 2, (3aR,4S,5S,6aR)-5-amino-4-(3-boronopropyl)-2-methyloctahydrocyclopenta[c]pyrrole-5-carboxylic acid] | – | 7.08 | inhibition at 16 µM [2]: 82.6% |
| NCCN1C[C@@H]2C[C@@](N)(C(=O)O)[C@@H](CCCB(O)O)[C@@H]2C1 [Example 9, (3aR,4S,5S,6aR)-5-amino-2-(2-aminoethyl)-4-(3-boronopropyl)octahydrocyclopenta[c]pyrrole-5-carboxylic acid] | 98 | – | – |
| CN(C)C[C@]12C[C@H]1CC(CCCB(O)O)C2(N)C(=O)O (stereo partly drawn) [Example 33a, (1S,5R)-2-amino-3-(3-boronopropyl)-1-((dimethylamino)methyl)bicyclo[3.1.0]hexane-2-carboxylic acid] | 62.7 | – | – |
| CN1CC[C@@H]2[C@H]1C[C@@H](CCCB(O)O)C2(N)C(=O)O (relative stereo) [Example 32, rel-(3aR,5R,6aR)-4-amino-5-(3-boronopropyl)-1-methyloctahydrocyclopenta[b]pyrrole-4-carboxylic acid] | 97.2 | – | – |
| N[C@@]1(C(=O)O)C[C@H]2CN(CC(F)(F)F)C[C@H]2[C@@H]1CCCB(O)O [Example 10, (3aR,4S,5S,6aR)-5-amino-4-(3-boronopropyl)-2-(2,2,2-trifluoroethyl)octahydrocyclopenta[c]pyrrole-5-carboxylic acid] | 55.9 | 5.28 | – |
| CC(C)[C@H](N)C(=O)N[C@H]1C[C@@H]2C[C@@](N)(C(=O)O)[C@@H](CCCB(O)O)[C@@H]2C1 [Example 47, (1S,2S,3aR,5S,6aR)-2-amino-5-((S)-2-amino-3-methylbutanamido)-1-(3-boronopropyl)octahydropentalene-2-carboxylic acid] | 94.2 | 6.28 | – |
